molecular target: Endothelial lipase (EL) (Homo sapiens (Human), UniProt Q9Y5X9); experiment: Endothelial lipase (EL) enzymatic assay with fluorescent substrate A10070 in DMPG vesicles; assay type: biochemical; conditions: conditioned media from HT-1080 cells overexpressing endogenous EL; 20 min preincubation at 37° C.; read-out: HLE_EL_CRC IC50
Procedure: Endothelial lipase activity was measured using a fluorescent substrate, A10070, (Invitrogen, CA) doped into an artificial vesicle containing DMPG (Avanti Polar Lipids) as the excipient. Vesicles were prepared by combining 285 uL of 1 mM DMPG in a 1:1 mixture of MeOH and CHCl3 with 15 uL of 1 mM A10070 in a 1:1 mixture of MeOH and CHCl3. The mixture was dried under nitrogen and resuspended in 150 uL of 50 mM HEPES pH 8.0 buffer containing 100 mM NaCl and 0.2 mM EDTA. The sample was allowed to sit at rt for 15 min and then was sonicated 3×4 mins on ice with a Branson Sonicator using duty cycle 1. This preparation provides vesicles with a mole fraction of 0.05 for the FRET substrate.
The enzymatic assay was measured using white, opaque 96-well half area plates. Each well contained 60 uL of assay buffer (50 mM HEPES pH 8.0, 50 mM NaCl and 1 mM CaCl2) and 2 ul of a DMSO solution containing compound of interest. Conditioned media obtained from HT-1080 cells, which were transformed by RAGE technology (Athersys) to overexpress endogenous EL, was added and the reaction was allowed to incubate for 20 min at 37° C. with gentle agitation. The reaction was started by the addition of 20 uL of a 1:4 dilution of vesicles. The final total reaction volume was 100 uL. The reaction rates were measured on a Gemini plate reader with an excitation wavelength of 488 nm and a emission of 530 nm. Readings were taken every 20 seconds for 10 min with agitation between each reading. The slope of the linear portion of the readout was used to calculate the rate of the reaction.

Chain of Endothelial lipase (EL) (Q9Y5X9 21-500): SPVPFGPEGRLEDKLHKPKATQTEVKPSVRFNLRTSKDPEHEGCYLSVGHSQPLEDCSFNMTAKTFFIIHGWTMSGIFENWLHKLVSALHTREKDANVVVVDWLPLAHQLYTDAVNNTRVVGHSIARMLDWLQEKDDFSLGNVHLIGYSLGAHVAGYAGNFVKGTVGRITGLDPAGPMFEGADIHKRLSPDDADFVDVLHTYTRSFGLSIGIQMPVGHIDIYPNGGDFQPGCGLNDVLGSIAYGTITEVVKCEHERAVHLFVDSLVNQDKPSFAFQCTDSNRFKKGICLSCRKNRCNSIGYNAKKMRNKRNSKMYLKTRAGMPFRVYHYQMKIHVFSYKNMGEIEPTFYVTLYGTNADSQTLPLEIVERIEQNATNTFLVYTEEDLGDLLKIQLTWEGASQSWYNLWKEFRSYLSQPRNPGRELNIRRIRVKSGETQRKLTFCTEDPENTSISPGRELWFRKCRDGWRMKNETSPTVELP

| Compound | IC50 |
| --- | --- |
| Cn1ccc(C(=O)NCc2ccc(Oc3ccc(F)cc3)cc2)c(O)c1=O [Example 16, N-(4-(4-fluorophenoxy)benzyl)-3-hydroxy-1-methyl-2-oxo-1,2-dihydropyridine-4-carboxamide] | 10 nM |
| O=C(N[C@H]1CC[C@@H](c2ccccc2)CC1)c1ccn(CCCC(F)(F)F)c(=O)c1O [Example 39, 3-hydroxy-2-oxo-N-(cis-4-phenylcyclohexyl)-1-(4,4,4-trifluorobutyl)-1,2-dihydropyridine-4-carboxamide] | 692 nM |
| Cn1ccc(C(=O)NCc2ccccc2N2CCCC2)c(O)c1=O [Example 31, 3-hydroxy-1-methyl-2-oxo-N-(2-(pyrrolidin-1-yl)benzyl)-1,2-dihydropyridine-4-carboxamide] | 6450 nM |
| O=C(NCc1ccccc1-c1ccc(F)cc1)c1ccn(CC(F)(F)F)c(=O)c1O [Example 41, N-((4′-fluorobiphenyl-2-yl)methyl)-3-hydroxy-2-oxo-1-(2,2,2-trifluoroethyl)-1,2-dihydropyridine-4-] | 11.1 nM |
| Cn1ccc(C(=O)NCc2ccccc2N2CCCCC2)c(O)c1=O [Example 29, 3-hydroxy-1-methyl-2-oxo-N-(2-(piperidin-1-yl)benzyl)-1,2-dihydropyridine-4-carboxamide] | 6540 nM |
| Cn1ccc(C(=O)NCc2cccc(-c3ccccc3)c2)c(O)c1=O [Example 21, N-(biphenyl-3-ylmethyl)-3-hydroxy-1-methyl-2-oxo-1,2-dihydropyridine-4-carboxamide] | 17.9 nM |

Next, values leading:

| IC50 | Compound |
| --- | --- |
| 4570 nM | O=C(NC1CCN(c2ccc(F)cc2)CC1)c1ccn(CC(F)(F)F)c(=O)c1O [Example 33, N-(1-(4-fluorophenyl)piperidin-4-yl)-3-hydroxy-2-oxo-1-(2,2,2-trifluoroethyl)-1,2-dihydropyridine-4-carboxamide] |
| 11.3 nM | Cn1c(C(F)(F)F)cc(C(=O)NCc2cccc(-c3ccc(Cl)cc3)c2)c(O)c1=O [Example 32, N-((4′-chlorobiphenyl-3-yl)methyl)-3-hydroxy-1-methyl-2-oxo-6-(trifluoromethyl)-1,2-dihydropyridine-4-carboxamide] |
| 475 nM | Cn1c(Cl)cc(C(=O)NC2CCC(c3ccccc3)CC2)c(O)c1=O (stereo not shown) [Example 44, 6-chloro-3-hydroxy-1-methyl-2-oxo-N-(4-phenylcyclohexyl)-1,2-dihydropyridine-4-carboxamide] |
| 352 nM | O=C(N[C@H]1CC[C@@H](c2ccccc2)CC1)c1ccn(CCC(F)(F)F)c(=O)c1O [Example 37, 3-hydroxy-2-oxo-N-(cis-4-phenylcyclohexyl)-1-(3,3,3-trifluoropropyl)-1,2-dihydropyridine-4-carboxamide] |

— US8993557B2, “Pyridinedione carboxamide inhibitors of endothelial lipase” (Bristol-Myers Squibb Company, priority 2011, dated 2015)
